Data published in patent US9458447B2, “MPHOSPH1 peptides and vaccines including the same” (OncoTherapy Science, Inc., priority 2011, dated 2016).
Where no end group is shown, it is not given here.

Experiments:
Type in all cases: cell-based, human
[1] = tested on: T2 cells pulsed with corresponding peptide; experiment: IFN-gamma ELISA of CTL clones established by limiting dilution
Protocol: The dilutions were made to have 0.3, 1, and 3 CTLs/well in 96 round-bottomed micro titer plate (Nalge Nunc International). CTLs were cultured with 1×10^4 cells/well of 2 kinds of human B-lymphoblastoid cell lines, 30 ng/ml of anti-CD3 antibody, and 125 U/ml of IL-2 in a total of 150 microliter/well of AIM-V Medium containing 5% AS. 50 microliter/well of IL-2 were added to the medium 10 days later to reach a final concentration of 125 U/ml IL-2. CTL activity was tested on the 14th day, and CTL clones were expanded using the same method as described above (Uchida N et al., Clin Cancer Res 2004 Dec. 15, 10(24): 8577-86; Suda T et al., Cancer Sci 2006 May, 97(5): 411-9; Watanabe T et al., Cancer Sci 2005 August, 96(8): 498-506).
(§1) To examine specific CTL activity, interferon(IFN)-gamma enzyme-linked immunospot (ELISPOT) assay and IFN-gamma enzyme-linked immunosorbent assay (ELISA) were performed. Peptide-pulsed T2 (1×10^4/well) was prepared as stimulator cells. Cultured cells in 48-well plate, CTL lines and CTL clones were used as responder cells. IFN-gamma ELISPOT assay and IFN-gamma ELISA assay were performed under manufacture procedure.

[2] = tested on: T2 cells pulsed with the corresponding peptide; experiment: IFN-gamma ELISA of established CTL lines; details: T2 cells pulsed with corresponding peptide vs T2 cells without peptide pulse
Protocol: CTLs were expanded in culture using the method similar to the one described by Riddell et al. (Walter E A et al., N Engl J Med 1995 Oct. 19, 333(16): 1038-44; Riddell S R et al., Nat Med 1996 February, 2(2): 216-23). A total of 5×10^4 CTLs were suspended in 25 ml of AIM-V/5% AS medium with 2 kinds of human B-lymphoblastoid cell lines, inactivated by Mitomycin C, in the presence of 40 ng/ml of anti-CD3 monoclonal antibody (Pharmingen). One day after initiating the cultures, 120 IU/ml of IL-2 were added to the cultures. The cultures were fed with fresh AIM-V/5% AS medium containing 30 IU/ml of IL-2 on days 5, 8 and 11 (Tanaka H et al., Br J Cancer 2001 Jan. 5, 84(1): 94-9; Umano Y et al., Br J Cancer 2001 Apr. 20, 84(8): 1052-7; Uchida N et al., Clin Cancer Res 2004 Dec. 15, 10(24): 8577-86; Suda T et al., Cancer Sci 2006 May, 97(5): 411-9; Watanabe T et al., Cancer Sci 2005 August, 96(8): 498-506).
as §1

peptide-pulsed T2 cells = experiment: IFN-gamma ELISPOT assay of CTLs induced with peptide-pulsed DCs; details: CTLs from HLA-A*0201 positive donor after 3rd peptide stimulation, day 21; peptide-pulsed T2 vs control wells
Source text: Monocyte-derived dendritic cells (DCs) were used as antigen-presenting cells to induce cytotoxic T lymphocyte (CTL) that responses against peptides presented on human leukocyte antigen (HLA). DCs were generated in vitro as described elsewhere (Nakahara S et al., Cancer Res 2003 Jul. 15, 63(14): 4112-8). Specifically, peripheral blood mononuclear cells isolated from a normal volunteer (HLA-A*0201 positive) by Ficoll-Paque plus (Pharmacia) solution were separated by adherence to a plastic tissue culture dish (Becton Dickinson) so as to enrich them as the monocyte fraction. The monocyte-enriched population was cultured in the presence of 1000 U/ml of granulocyte-macrophage colony-stimulating factor (R&D System) and 1000 U/ml of interleukin (IL)-4 (R&D System) in AIM-V Medium (Invitrogen) containing 2% heat-inactivated autologous serum (AS). After 7 days of culture, the cytokine-induced DCs were pulsed with 20 microgram/ml of each of the synthesized peptides in the presence of 3 microgram/ml of beta 2-microglobulin for 3 hr at 37 degrees C. in AIM-V Medium. The generated cells appeared to express DC-associated molecules, such as CD80, CD83, CD86 and HLA class II, on their cell surfaces (data not shown). These peptide-pulsed DCs were then inactivated by X ray-irradiated (20 Gy) and mixed at a 1:20 ratio with autologous CD8^+ T cells, obtained by positive selection with CD8 Positive Isolation Kit (Dynal). These cultures were set up in 48-well plates (Corning); each well contained 1.5×10^4 peptide-pulsed DCs, 3×10^5 CD8^+ T cells and 10 ng/ml of IL-7 (R&D System) in 0.5 ml of AIM-V/2% AS medium. Three days later, these cultures were supplemented with IL-2 (CHIRON) to a final concentration of 20 IU/ml. On day 7 and 14, the T cells were further stimulated with the autologous peptide-pulsed DCs. The DCs were prepared each time by the same way described above. CTL was tested against peptide-pulsed T2 cells after the 3rd round of peptide stimulation on day 21 (Tanaka H et al., Br J Cancer 2001 Jan. 5, 84(1): 94-9; Umano Y et al., Br J Cancer 2001 Apr. 20, 84(8): 1052-7; Uchida N et al., Clin Cancer Res 2004 Dec. 15, 10(24): 8577-86; Suda T et al., Cancer Sci 2006 May, 97(5): 411-9; Watanabe T et al., Cancer Sci 2005 August, 96(8): 498-506).
as §1

MKN45 cells = experiment: Cytotoxic activity of CTL clone, 51Cr-release, HLA-A*0201-negative control; details: express MPHOSPH1 but not HLA-A*0201
Protocol: (§2) The CTL clones were examined for their ability to kill the tumor cells endogenously expressing MPHOSPH1 and HLA-A*0201. Target cells (tumor cell lines) were labeled with 100 micro-Ci of Na2^51CrO4 (Perkin Elmer) for 1 hr in CO2 incubator. Peptide-pulsed target cells were prepared by incubating the cells with 20 microgram/ml of the peptide for 16 hrs before labeling. Target cells labeled with ^51Cr were rinsed and mixed with CTL clones in a final volume of 200 microliter in 96-well round-bottom microtiter plates. The plates were centrifuged (4 minutes at 800 rpm) to increase cell-to-cell contact and placed into CO2 incubator. After 4 hrs of incubation, 50 microliter of the supernatant was collected from each well and the radioactivity was determined with a gamma counter (PerkinElmer). The percentage of specific cytotoxicity was determined by calculating the percentage of specific ^51Cr-release by the following formula: {(cpm of the test sample release−cpm of the spontaneous release)/(cpm of the maximum release−cpm of the spontaneous release)}×100. Spontaneous release was determined by incubating the target cells alone, in the absence of effector cells. The maximum release was obtained by incubating the targets with 1N HCl. All measurements were done in duplicate.

UMUC-3 cells = experiment: Cytotoxic activity of CTL clone, 51Cr-release; details: express both MPHOSPH1 and HLA-A*0201
Protocol: as §2

T2 cells = experiment: Cytotoxic activity of CTL clone, 51Cr-release, MPHOSPH1-negative control; details: express HLA-A*0201 but not MPHOSPH1
Protocol: as §2

Substance	IFN-gamma production from CTL clones by IFN-gamma ELISA [1]	IFN-gamma production of CTL lines by IFN-gamma ELISA [2]	Peptide specific CTL activity (IFN-gamma production) by IFN-gamma ELISPOT (peptide-pulsed T2 cells)	Cytotoxic activity of CTL clone (MKN45 cells)	Cytotoxic activity of CTL clone (UMUC-3 cells)	Cytotoxic activity of CTL clone (T2 cells)
GLRAFLLTI (a peptide derived from MPHOSPH1) [SEQ ID NO: 64]	Potent IFN-gamma production was observed	potent IFN-gamma production against T2 cells pulsed with the corresponding peptide	potent IFN-gamma production as compared to the control wells			
YIYDLFVPVS [SEQ ID NO: 120, YIYDLFVPVS]				no significant cytotoxic activity was detected	potent cytotoxic activity	no significant cytotoxic activity was detected
YLAYdETLNV (YLAYDETLNV; not fully specified (residue 5); printed as YLAYdETLNV) [SEQ ID NO: 73]	Potent IFN-gamma production was observed	potent IFN-gamma production against T2 cells pulsed with the corresponding peptide	potent IFN-gamma production as compared to the control wells			
LLTLgKCINV (LLTLGKCINV; not fully specified (residue 5); printed as LLTLgKCINV) [SEQ ID NO: 79]		potent IFN-gamma production against T2 cells pulsed with the corresponding peptide	potent IFN-gamma production as compared to the control wells			
KLICnETVEV (KLICNETVEV; not fully specified (residue 5); printed as KLICnETVEV) [SEQ ID NO: 77]	Potent IFN-gamma production was observed	potent IFN-gamma production against T2 cells pulsed with the corresponding peptide	potent IFN-gamma production as compared to the control wells			
FQGCIMQPV (a peptide derived from MPHOSPH1) [SEQ ID NO: 14]		potent IFN-gamma production against T2 cells pulsed with the corresponding peptide	potent IFN-gamma production as compared to the control wells			
KLSNeIETAT (KLSNEIETAT; not fully specified (residue 5); printed as KLSNeIETAT) [SEQ ID NO: 97]		potent IFN-gamma production against T2 cells pulsed with the corresponding peptide	potent IFN-gamma production as compared to the control wells			
QLVAaLEIQL (QLVAALEIQL; not fully specified (residue 5); printed as QLVAaLEIQL) [SEQ ID NO: 103]		potent IFN-gamma production against T2 cells pulsed with the corresponding peptide	potent IFN-gamma production as compared to the control wells			
FLLTIENEL (a peptide derived from MPHOSPH1) [SEQ ID NO: 5]	Potent IFN-gamma production was observed	potent IFN-gamma production against T2 cells pulsed with the corresponding peptide	potent IFN-gamma production as compared to the control wells			
KLLDLIEDL (a peptide derived from MPHOSPH1) [SEQ ID NO: 1]			no specific IFN-gamma production was observed			
